Here are results for 1 compound from publication PMC10544575, “Inhibitory mechanism of vortioxetine on CYP450 enzymes in human and rat liver microsomes” (Frontiers in Pharmacology, 2023).

Usually IC50 stands for the midpoint of a concentration-inhibition curve. In general, Ki refers to the equilibrium dissociation constant of an inhibitor or competing ligand from its target.

Data set [1] relates to CYP2C-3. The experiment in a line: IC50-shift experiment, CYP2C-3 in RLMs. Type of data set: in vitro ADME. The settings on record: rat, rat liver microsomes, probe mephenytoin; for IC50 at 30 min: mephenytoin 400 μM. The protocol:
(§1) The components of the incubation system were as follows: 0.20 mg/mL HLMs or 0.20 mg/mL RLMs, 0.1 M Tris-HCl, vortioxetine, and the probe substrates of each enzyme. In the study of Km’s (Michaelis–Menten constant) experiment, midazolam (1, 2, 5, 10, 20, 50 and 100 μM in HLMs and RLMs) corresponded to CYP3A4/3A; bupropion (10, 20, 50, 100, 200, 500, 1,000 and 2000 μM in HLMs; 1, 2, 5, 10, 20, 50, 100 and 200 μM in RLMs) corresponded to CYP2B6/2B; amodiaquine (5, 10, 20, 50, 100 and 200 μM in HLMs; 10, 20, 50, 100, 200, 500 μM in RLMs) corresponded to CYP2C8/CYP2C-1; losartan (1, 2, 5, 10, 20, 50, 100, 200 μM in HLMs; 10, 20, 50, 100, 200, 500 and 1,000 μM in RLMs) corresponded to CYP2C9/CYP2C-2; mephenytoin (20, 50, 100, 200, 500 and 1,000 μM in HLMs; 5, 10, 20, 50, 100, 200, 500 and 1,000 μM in RLMs) corresponded to CYP2C19/CYP2C-3; and dextromethorphan (1, 2, 5, 10, 20, 50 and 100 μM in HLMs and RLMs) corresponded to CYP2D6/CYP2D. After 5.0 min of preincubation in the shaking water bath, the reaction was started with the addition of 1.0 mM NADPH. The incubated temperature at 37°C for 30 min. After the incubation, the enzyme reaction was stopped by cooling at −80°C, and 200 μL of acetonitrile and 20 μL of internal standard diazepam (200 ng/mL) were added for protein precipitation. […]
(§2) IC50-shift was used to investigate whether the drug produced time-dependent inhibition (TDI) of the enzyme. […] During the experiment, the individual substrates midazolam (4 μM), bupropion (40 μM), amodiaquine (3 μM), losartan (8 μM), mephenytoin (90 μM), and dextromethorphan (10 μM) were determined with vortioxetine IC50-shift in HLMs. […]
(§3) All experiments results were detected by UPLC-MS/MS, which equipped with a Waters Acquity UPLC system (Milford, MA, United States) and a Waters Xevo TQ-S triple quadrupole tandem mass spectrometer with an electrospray ionization source (Milford, MA, United States). […]
(§4) IC50 values and enzyme kinetic parameters were calculated by Graphpad Prism 6.0 (GraphPad software Inc., CA, United States). […] Data for each experiment were expressed as mean ± SD (n = 3).
A general note: Microsomes from liver hold many membrane-bound enzymes, among them those of drug oxidation.

For data set [2] the following is noted: no reference given; cited from earlier work.
For data set [3], the system named is CYP2C-1. As to the kind of experiment: Reversible inhibition kinetics (Lineweaver-Burk), CYP2C-1 in RLMs. Format: in vitro ADME, rat. The protocol: The components of the incubation system were as follows: 0.20 mg/mL HLMs or 0.20 mg/mL RLMs, 0.1 M Tris-HCl, vortioxetine, and the probe substrates of each enzyme. In the study of Km’s (Michaelis–Menten constant) experiment, midazolam (1, 2, 5, 10, 20, 50 and 100 μM in HLMs and RLMs) corresponded to CYP3A4/3A; bupropion (10, 20, 50, 100, 200, 500, 1,000 and 2000 μM in HLMs; 1, 2, 5, 10, 20, 50, 100 and 200 μM in RLMs) corresponded to CYP2B6/2B; amodiaquine (5, 10, 20, 50, 100 and 200 μM in HLMs; 10, 20, 50, 100, 200, 500 μM in RLMs) corresponded to CYP2C8/CYP2C-1; losartan (1, 2, 5, 10, 20, 50, 100, 200 μM in HLMs; 10, 20, 50, 100, 200, 500 and 1,000 μM in RLMs) corresponded to CYP2C9/CYP2C-2; mephenytoin (20, 50, 100, 200, 500 and 1,000 μM in HLMs; 5, 10, 20, 50, 100, 200, 500 and 1,000 μM in RLMs) corresponded to CYP2C19/CYP2C-3; and dextromethorphan (1, 2, 5, 10, 20, 50 and 100 μM in HLMs and RLMs) corresponded to CYP2D6/CYP2D. After 5.0 min of preincubation in the shaking water bath, the reaction was started with the addition of 1.0 mM NADPH. The incubated temperature at 37°C for 30 min. After the incubation, the enzyme reaction was stopped by cooling at −80°C, and 200 μL of acetonitrile and 20 μL of internal standard diazepam (200 ng/mL) were added for protein precipitation. The solution was fully vortexed and centrifuged at 13,000 × rpm for 10 min, and the supernatant was collected for data analysis by UPLC-MS/MS.
The inhibitory mechanism of the inhibitor on the enzyme was generally used by different concentrations of the inhibitor against different concentrations of the probe substrate. The concentrations of the inhibitor and the concentrations of probe substrates in the experiment were estimated based on IC50 and Km values, respectively.
In RLMs, the concentrations of the substrates midazolam and dextromethorphan were 0.8, 1.6, 3.5, 7 μM and 5, 10, 20, 40 μM, respectively, vortioxetine concentrations were 4, 8, 16, 32 μM. The concentrations of mephenytoin and amodiaquine were 100, 200, 400, 800 μM and 5, 10, 20, 40 μM, respectively, vortioxetine concentrations were 5, 10, 20, 40 μM. The losartan concentrations were 4, 8, 15, 30 μM, corresponding to vortioxetine concentrations of 0.08, 0.15, 0.3, 0.6 μM. […]
as §3, §4

In data set [4] the target is T1, CYP2B6 (Homo sapiens, UniProt P20813).
T1 sequence (P20813 1-491): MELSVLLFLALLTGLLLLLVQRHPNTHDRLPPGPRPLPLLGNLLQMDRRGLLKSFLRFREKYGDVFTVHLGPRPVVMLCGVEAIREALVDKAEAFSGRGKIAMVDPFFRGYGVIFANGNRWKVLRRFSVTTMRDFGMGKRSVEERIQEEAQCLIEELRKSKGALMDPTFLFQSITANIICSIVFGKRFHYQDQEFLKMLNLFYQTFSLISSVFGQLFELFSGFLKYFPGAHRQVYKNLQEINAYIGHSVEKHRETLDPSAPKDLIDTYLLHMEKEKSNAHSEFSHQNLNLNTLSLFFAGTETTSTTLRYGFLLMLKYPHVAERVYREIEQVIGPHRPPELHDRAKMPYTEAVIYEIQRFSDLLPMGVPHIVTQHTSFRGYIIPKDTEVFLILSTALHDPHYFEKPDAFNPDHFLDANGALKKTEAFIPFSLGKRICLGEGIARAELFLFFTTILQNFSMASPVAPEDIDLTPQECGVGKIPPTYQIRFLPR
As to the kind of experiment: IC50-shift experiment, CYP2B6 in HLMs. Type of data set: in vitro ADME. Also noted: 0.20 mg/mL HLMs or 0.20 mg/mL RLMs; from tissue; host or cells: human liver microsomes. Particulars: for IC50: bupropion 40 μM. The protocol: as §1, §2, §3, §4

Setting [5] is: 30 min preincubation with 1.0 mM NADPH.
[6] abbreviates: 30 min preincubation without NADPH.

As for `Cc1ccc(Sc2ccccc2N2CCNCC2)c(C)c1` [vortioxetine], the IC50 at 30 min in data set [1] (setting [5]) came to 5.21 µM; in data set [1] (setting [6]), 24.6 µM. The IC50 shift at 30 min in data set [1] (ratio IC50 (−) NADPH to IC50 (+) NADPH, read-out: IC50 fold shift) came out at 4.72; in data set [4] (human, human liver microsomes, probe bupropion (40 μM), ratio IC50 (−) NADPH to IC50 (+) NADPH, read-out: IC50 fold shift), 0.8. The “plasma protein (binding)” value in data set [2] is 99%. The compound further registered a α in data set [3] (amodiaquine) of 1.42. Also, the Inhibition type result in data set [3] (amodiaquine, Lineweaver-Burk plot) is “mixed inhibition”. The same compound came in with a αKi in data set [3] (amodiaquine, secondary plot of y-intercepts) of 56.73 µM. This compound returned an inhibition constant Ki at 30 min in data set [3] (rat, rat liver microsomes, probe amodiaquine) of 39.9 µM. Besides, the IC50 is 6.69 µM in data set [4] (setting [5]) and 5.38 µM in data set [4] (setting [6]).
